From patent publication USRE44733E1, “6-mercapto-cyclodextrin derivatives:reversal agents for drug-induced neuromuscular block” (Merck Sharp & Dohme B.V., priority 1999, dated 2014)

Tested on: neuromuscular block, induced by the muscle relaxant rocuronium bromide (Roc)
Experiment: Reversal of neuromuscular blockade in anaesthetized guinea pigs in vivo
Conditions: for concentration at maximum reversal (at conc.) / % max reversal: anaesthetized guinea pigs, rocuronium bromide steady-state block; for concentration at maximum reversal (at conc.): dose of reversal agent at which % max reversal was seen; for % max reversal: maximum reversal; for ED50: dose producing 50% reversal of steady-state neuromuscular block: anaesthetized male Dunkin-Hartley guinea pigs, steady-state block of 85-90% by continuous rocuronium bromide infusion, reversal agent given by jugular vein catheter, M. gastrocnemius contractions
Protocol: Reversal of Neuromuscular Blockade in Anaesthetized Guinea Pigs in vivo
Male Dunkin-Hartley guinea pigs (bodyweight: 600-900 g) were anaesthetized by i.p. administration of 10 mg/kg pentobarbitone and 1000 mg/kg urethane. After tracheotomy, the animals were artificially ventilated using a Harvard small animal ventilator. A catheter was placed into the carotid artery for continuous monitoring of arterial blood pressure and the taking of blood samples for blood gas analysis. Heart rate was derived from the blood pressure signal. The sciatic nerve was stimulated (rectangular pulses of 0.5 ms duration at 10 s (0.1 Hz) intervals at a supramaximal voltage, using a Grass S88 Stimulator) and the force of M. gastrocnemius contractions was measured using a Grass FT03 force-displacement transducer. Contractions, blood pressure and heart rate were recorded on a multichannel Grass 7D recorder. Catheters were placed in both jugular veins. One catheter was used for the continuous infusion of a neuromuscular blocking agent. The infusion rate of the neuromuscular blocking agent was increased until a steady-state block of 85-90% was obtained. The other catheter was used for administration of increasing doses of the reversal agent. During continuous infusion of the neuromuscular blocking agent, single doses of increasing concentration of reversal agent were given. At the end of the experiment, the measured force of muscle contractions was plotted against the concentration of reversal agent, and using regression analysis techniques, the 50% reversal concentration was calculated. Results for the reversal of the neuromuscular block, induced by the muscle relaxant rocuronium bromide (Roc), by the 6-mercapto-cyclodextrin derivatives of Examples 1-19 are presented in Table I. For comparison, the reversal activity of the parent compounds β-cyclodextrin and γ-cyclodextrin are included as well.

| Compound | concentration at maximum reversal (at conc.) | % max reversal | ED50: dose producing 50% reversal of steady-state neuromuscular block |
| --- | --- | --- | --- |
| OC[C@H]1O[C@@H]2O[C@H]3[C@H](O)[C@@H](O)[C@@H](O[C@H]4[C@H](O)[C@@H](O)[C@@H](O[C@H]5[C@H](O)[C@@H](O)[C@@H](O[C@H]6[C@H](O)[C@@H](O)[C@@H](O[C@H]7[C@H](O)[C@@H](O)[C@@H](O[C@H]8[C@H](O)[C@@H](O)[C@@H](O[C@H]1[C@H](O)[C@H]2O)O[C@@H]8CO)O[C@@H]7CO)O[C@@H]6CO)O[C@@H]5CO)O[C@@H]4CO)O[C@@H]3CO [β-cyclodextrin, reference compound] | (113) μmol · kg^−1 | 93% | 20 µmol/kg |
| OC[C@H]1O[C@@H]2O[C@H]3[C@H](O)[C@@H](O)[C@@H](O[C@H]4[C@H](O)[C@@H](O)[C@@H](O[C@H]5[C@H](O)[C@@H](O)[C@@H](O[C@H]6[C@H](O)[C@@H](O)[C@@H](O[C@H]7[C@H](O)[C@@H](O)[C@@H](O[C@H]8[C@H](O)[C@@H](O)[C@@H](O[C@H]9[C@H](O)[C@@H](O)[C@@H](O[C@H]1[C@H](O)[C@H]2O)O[C@@H]9CO)O[C@@H]8CO)O[C@@H]7CO)O[C@@H]6CO)O[C@@H]5CO)O[C@@H]4CO)O[C@@H]3CO [γ-cyclodextrin, reference compound] | (47) μmol · kg^−1 | 104% | 4 µmol/kg |
